# Where “and” joins values, the source holds several entries; their conditions need not be identical. Equal values may be shown once. Read-outs that look alike come from different tables or passages of the source. Marks after values point to notes of the source that are not given here.
# Columns and labels:
# clinical = conditions: female, human, in vivo
# HIV-1 [1] = experiment: Maternal plasma HIV-1 RNA; assay type: in vivo, human; conditions: rilpivirine with combination antiretrovirals
# [2] = Maternal safety, pregnancy and infant outcomes; assay type: in vivo, human
# [3] = Stability in stored plasma; assay type: physicochemical; conditions: plasma stored at −70°C
# HIV-1 [4] = conditions: cited from earlier work
# [5] = cited from earlier work
# [6] = cited from earlier work; remark: listed apart in the source
# [7] = tested on: cytochrome P450 3A4 (CYP 3A4); conditions: cited from earlier work
# [8] = cited from earlier work; remark: listed apart in the source
# [9] = for AUC24 geometric mean (90% CI) ratio: within-subject; for Tmax: mode (range); for Vd/F: Vd/F (apparent volume of distribution); for AUC: one subject on concomitant darunavir/ritonavir
# [10] = cited from earlier work; remark: listed apart in the source
# [11] = 25 mg once daily, postpartum, median (range)
# [12] = 25 mg once daily, second trimester, median (range)
# [13] = 25 mg once daily, third trimester, median (range)
# [14] = Second Trimester/Postpartum, n = 15
# [15] = Second Trimester/Third Trimester, n = 15
# [16] = Third Trimester/Postpartum, n = 28
# [17] = female, human, plasma, oral, 25 mg, 25 mg once daily, second trimester, median (range)
smiles,measurement,setting,value
Cc1cc(/C=C/C#N)cc(C)c1Nc1ccnc(Nc2ccc(C#N)cc2)n1 [Rilpivirine],Kp,clinical,0.55
same,"Maternal plasma rilpivirine concentration at delivery, median (range)",clinical,103.3 (<10 to 273.4) ng/mL
same,"Umbilical cord blood rilpivirine concentration at delivery, median (range)",clinical,53.78 (<10 to 219.7) ng/mL
same,"HIV-1 RNA at 2nd trimester, median (range)",HIV-1 [1],< 40 (<20 – 2770) copies/mL
same,"HIV-1 RNA at 3rd trimester, median (range)",HIV-1 [1],< 20 (<20 – 48700) copies/mL
same,"HIV-1 RNA at Delivery, median (range)",HIV-1 [1],< 20 (<16 – 48700) copies/mL
same,Number of preterm deliveries,"[2]; at 32, 35, and 36 weeks, N of 30",3 (10%)
same,"Gestational age at delivery, median (range)",[2]; in vivo,38.9 (32.3 – 41.4) weeks
same,"Infant Birth weight, median (range)",[2]; in vivo,3095 (1570 – 4570) g
same,Tolerability,"[2]; pregnant and postpartum women, 25 mg once daily",well tolerated
same,Stability in plasma,[3],2 years
same,median EC50,HIV-1 [4],0.27 ng/mL
same,median EC90,HIV-1 [4],0.66 ng/mL
same,protein binding-adjusted EC50,HIV-1 [4],5.0 ng/mL
same,Bound to protein,[5],99.7%
same,Cord blood to maternal plasma ratio,[6]; one person,0.74
same,Reduction in exposure during pregnancy compared to postpartum,"[6]; two women, one value each",30% and 43%
same,Substrate of cytochrome P450 3A4,[7],substrate
same,Coefficient of variation (CV) for AUC,"[8]; human, in vivo",38%
same,10th percentile rilpivirine AUC,[8]; non-pregnant adults,880 ng·h/mL
same,C0 (pre-dose concentration),[9]; [11],69 (<10 – 285) ng/mL
same,C24 (24 hour post-dose concentration),[9]; [11],81 (<10 – 299) ng/mL
same,Cmin (minimum observed concentration),[9]; [11],58 (<10 – 200) ng/mL
same,C0 (pre-dose concentration),[9]; [12],98(31 – 216) ^‡ ng/mL
same,C24 (24 hour post-dose concentration),[9]; [12],63(37 – 225) ^* ng/mL
same,Cmin (minimum observed concentration),[9]; [12],65(29 – 178) ng/mL
same,C0 (pre-dose concentration),[9]; [13],56(<10 – 210) ng/mL
same,C24 (24 hour post-dose concentration),[9]; [13],56(<10 – 181) ^† ng/mL
same,Cmin (minimum observed concentration),[9]; [13],51(<10 – 136) ng/mL
same,Coefficient of variation (CV) for Cmax,[9]; 2nd trimester,53%
same,Coefficient of variation (CV) for Cmin,[9]; 2nd trimester,55%
same,Coefficient of variation (CV) for AUC,"[9]; 2nd trimester, between-subject",186%
same,Coefficient of variation (CV) for AUC,[9]; 3rd trimester,194%
same,Coefficient of variation (CV) for Cmax,[9]; 3rd trimester,212%
same,Coefficient of variation (CV) for Cmin,[9]; 3rd trimester,154%
same,"Minimum plasma concentration (Cmin), median (range)",[9]; 14 visits with detectable HIV-1 RNA,30 (<10 – 93) ng/mL and 30 ng/mL
same,"Minimum plasma concentration (Cmin), median (range)",[9]; 62 visits with undetectable HIV-1 RNA,63 (15 – 199) ng/mL and 63 ng/mL
same,C0 geometric mean (90% CI) ratio,[9]; [14],0.91 (0.61 – 1.38)
same,C24 geometric mean (90% CI) ratio,[9]; [14],0.70 (0.55 – 0.90)
same,CL/F geometric mean (90% CI) ratio,[9]; [14],1.33 (1.04 – 1.70)
same,Cmax geometric mean (90% CI) ratio,[9]; [14],0.84 (0.69 – 1.02)
same,Cmin geometric mean (90% CI) ratio,[9]; [14],0.88 (0.63 – 1.21)
same,Vd/F geometric mean (90% CI) ratio,[9]; [14],1.50 (0.58 – 3.93)
same,AUC24 geometric mean (90% CI) ratio,[9]; [14],0.77 (0.61 – 0.96)
same,C0 geometric mean (90% CI) ratio,[9]; [15],1.30 (1.06 – 1.60)
same,C24 geometric mean (90% CI) ratio,[9]; [15],1.09 (0.95 – 1.26)
same,CL/F geometric mean (90% CI) ratio,[9]; [15],0.92 (0.81 – 1.05)
same,Cmax geometric mean (90% CI) ratio,[9]; [15],1.13 (0.96 – 1.34)
same,Cmin geometric mean (90% CI) ratio,[9]; [15],1.22(1.02 – 1.45)
same,Vd/F geometric mean (90% CI) ratio,[9]; [15],0.36(0.22 – 0.58)
same,AUC24 geometric mean (90% CI) ratio,[9]; [15],1.09 (0.96 – 1.23)
same,C0 geometric mean (90% CI) ratio,[9]; [16],0.94 (0.59 – 1.50)
same,C24 geometric mean (90% CI) ratio,[9]; [16],0.84 (0.57 – 1.23)
same,CL/F geometric mean (90% CI) ratio,[9]; [16],1.26 (0.97 – 1.64)
same,Cmax geometric mean (90% CI) ratio,[9]; [16],0.83 (0.68 – 1.01)
same,Cmin geometric mean (90% CI) ratio,[9]; [16],1.11 (0.70 – 1.74)
same,Vd/F geometric mean (90% CI) ratio,[9]; [16],1.42 (0.68 – 2.97)
same,AUC24 geometric mean (90% CI) ratio,[9]; [16],0.80 (0.62 – 1.03)
same,concentration at 24 h,"[9]; female, human, plasma, oral, 25 mg, C24 (24 hour post-dose concentration), 25 mg once daily, second trimester, median (range)",63 ng/mL
same,Cmax,"[9]; female, human, plasma, oral, 25 mg, 25 mg once daily, postpartum, median (range)",134 ng/mL
same,Cmax,[9]; [17],145 ng/mL
same,Tmax,"[9]; female, human, plasma, oral, 25 mg, 25 mg once daily, postpartum",4 h
same,Tmax,"[9]; female, human, plasma, oral, 25 mg, 25 mg once daily, third trimester",2 h
same,Vd/F,[9]; [17],750 L
same,Vd/F,"[9]; female, human, plasma, oral, 25 mg, 25 mg once daily, third trimester, median (range)",1210 L
same,AUC,"[9]; human, plasma, oral, 25 mg, second trimester",12400 ng·h/mL
same,AUC,"[9]; human, plasma, oral, 25 mg, third trimester",3600 ng·h/mL
same,Coefficient of variation (CV) for AUC,[9]; postpartum,60%
same,Coefficient of variation (CV) for Cmax,[9]; postpartum,58%
same,Coefficient of variation (CV) for Cmin,[9]; postpartum,71%
same,Women below the AUC0–24 10th percentile target (880 ng*hr/mL),"[9]; postpartum, 3 of 28",11%
same,Women with absorption lag (1 hour post-dose concentration less than pre-dose),"[9]; postpartum, 11 of 28",39%
same,C24 lower vs. postpartum,[9]; second trimester,30%
same,Reduction of AUC compared to postpartum,[9]; second trimester,23%
same,Women below the AUC0–24 10th percentile target (880 ng*hr/mL),"[9]; second trimester, 1 of 15",7%
same,Women with absorption lag (1 hour post-dose concentration less than pre-dose),"[9]; second trimester, 9 of 18",50%
same,C24 lower vs. postpartum,[9]; third trimester,16%
same,Reduction of drug exposure (AUC) compared to postpartum,[9]; third trimester,20%
same,Women below the AUC0–24 10th percentile target (880 ng*hr/mL),"[9]; third trimester, 2 of 28",7%
same,Women with absorption lag (1 hour post-dose concentration less than pre-dose),"[9]; third trimester, 13 of 30",43%
COC(=O)N[C@H](C(=O)N[C@@H](Cc1ccccc1)[C@@H](O)CN(Cc1ccc(-c2ccccn2)cc1)NC(=O)[C@@H](NC(=O)OC)C(C)(C)C)C(C)(C)C [atazanavir],AUC during pregnancy compared to postpartum,[10]; HIV protease inhibitors,significant decreases
CC(C)CN(C[C@@H](O)[C@H](Cc1ccccc1)NC(=O)O[C@H]1CO[C@H]2OCC[C@H]21)S(=O)(=O)c1ccc(N)cc1 [darunavir],AUC during pregnancy compared to postpartum,[10]; HIV protease inhibitors,significant decreases
O=C1Nc2ccc(Cl)cc2[C@@](C#CC2CC2)(C(F)(F)F)O1 [efavirenz],Clearance during pregnancy,[10],increased
Cc1cc(C#N)cc(C)c1Oc1nc(Nc2ccc(C#N)cc2)nc(N)c1Br [etravirine],Exposure during pregnancy compared to postpartum,[10],increased
CC(C)CN(C[C@@H](OP(=O)(O)O)[C@H](Cc1ccccc1)NC(=O)O[C@H]1CCOC1)S(=O)(=O)c1ccc(N)cc1 [fosamprenavir],AUC during pregnancy compared to postpartum,[10]; in vivo,significant decreases
CC(C)(C)NC(=O)[C@@H]1CN(Cc2cccnc2)CCN1C[C@@H](O)C[C@@H](Cc1ccccc1)C(=O)N[C@H]1c2ccccc2C[C@H]1O [indinavir],AUC during pregnancy compared to postpartum,[10]; in vivo,significant decreases
Cc1cccc(C)c1OCC(=O)N[C@@H](Cc1ccccc1)[C@@H](O)C[C@H](Cc1ccccc1)NC(=O)[C@H](C(C)C)N1CCCNC1=O [lopinavir],AUC during pregnancy compared to postpartum,[10]; in vivo,significant decreases
Cc1c(O)cccc1C(=O)N[C@@H](CSc1ccccc1)[C@H](O)CN1C[C@H]2CCCC[C@H]2C[C@H]1C(=O)NC(C)(C)C [nelfinavir],AUC during pregnancy compared to postpartum,[10]; HIV protease inhibitors,significant decreases
Cc1ccnc2c1NC(=O)c1cccnc1N2C1CC1 [nevirapine],AUC reduced during third trimester compared to postpartum,[10]; in vivo,20%
same,Cmax reduced during third trimester compared to postpartum,[10]; in vivo,20%
same,Cmin reduced during third trimester compared to postpartum,[10]; in vivo,20%
CC(C)(C)NC(=O)[C@@H]1C[C@@H]2CCCC[C@@H]2CN1C[C@@H](O)[C@H](Cc1ccccc1)NC(=O)[C@H](CC(N)=O)NC(=O)c1ccc2ccccc2n1 [saquinavir],AUC during pregnancy compared to postpartum,[10]; in vivo,significant decreases

# Reference: publication PMC4911231 (Journal of acquired immune deficiency syndromes (1999), 2016)
